The values that follow come from patent US20250354188A1, “METHOD FOR SYNTHESIZING CELOSIANIN II, METHOD FOR SYNTHESIZING BETAXANTHIN, AMYLOID-ß POLYMERIZATION INHIBITOR OR THERAPEUTIC OR PROPHYLACTIC AGENT FOR ALZHEIMER'S DISEASE, AMYLOID PEPTIDE AGGREGATION INHIBITOR, AND HIV-1 PROTEASE ACTIVITY INHIBITOR” (priority 2019, published 2025).

For series [1], the target named is T1, β-Amyloid (1-40) (Homo sapiens, UniProt P05067).
T1 construct: SensoLyte Thioflavin T β-Amyloid (1-40) Aggregation Kit (ANASPEC); purchased ANASPEC
Description: Amyloid-β polymerization inhibitory activity in Thioflavin T (ThT) assay. Type of series: biochemical. The following applies: sample 50 μM final; ThT fluorescence for 4 hours. As to the method:
ThT assay involved evaluating polymerization using SensoLyte Thioflavin T β-Amyloid (1-40) Aggregation Kit (ANASPEC) in accordance with an accompanying protocol.
As an apparatus used for measurement, Varioskan LUX (Thermo Fisher Scientific) was used, and fluorescence derived from the polymerization of amyloid-β was measured for 4 hours at intervals of 5 minutes. A sample was stirred for 15 seconds before each measurement and subjected to the measurement. An excitation wavelength of 440 nm and a detection wavelength of 484 nm were used.
The sample used for the ThT assay was prepared to have a final concentration of 50 μM before being used for the experiment. Tannic acid (Ono, K., Hasegawa, K., Naiki, H. & Yamada, M. (2004) Anti-amyloidogenic activity of tannic acid and its activity to destabilize Alzheimer's beta-amyloid fibrils in vitro. Biochim Biophys Acta 1690, 193-202.) was used as a control of an inhibitor.
The sample used for the ThT assay was prepared to have a final concentration of 50 μM before being used for the experiment. An extracted sample from the BY-2 cells having an empty vector introduced therein (VC) and water (PC) in place of a sample were used as controls. In addition, betanin and curcumin were used as positive controls. Curcumin is a plant-derived substance reported to have amyloid-β polymerization inhibitory activity (Yang F, Lim GP, Begum AN, et al. Curcumin inhibits formation of amyloid betaoligomers and fibrils, binds plaques, and reduces amyloid in vivo. J BiolChem. 2005; 280(7): 5892-5901. doi:10.1074/jbc.M404751200).

In series [2] the test system is Transgenic nematodes (CL2006) expressing human amyloid-β 1-42, Aβ42. Description: Paralysis test using transgenic nematodes expressing amyloid peptide. Type of series: in vivo, Caenorhabditis elegans. Conditions: fed with 50 μM betanin, compared to group fed with dextrin (control). On the procedure: In a transgenic nematode expressing an amyloid peptide, aggregates of the amyloid peptide are formed in the body along with its growth period, and the nematode is paralyzed. In view of this, whether feeding with betanin changed a paralysis ratio was evaluated.
Nematodes were grown using NGM plates (nematode growth medium), and grown using Escherichia coli (OP50 strain) as food under the condition of 15° C. unless otherwise indicated.
Transgenic nematodes (CL2006) expressing an amyloid peptide (human amyloid-β 1-42, Aβ42) were obtained from the Caenorhabditis Genetics Center (CGC), USA. The CL2006 expresses Aβ42 in the cells of the body wall muscle of the nematode, and then aggregation of the amyloid peptide occurs in the muscle. […]
The individuals grown to adults through the synchronized growth were transferred to NGM plates containing various concentrations (2 μM, 10 μM, and 50 μM) of food having mixed therein dextrin or betanin, and were grown. After the nematodes had been transferred, the nematodes were each evaluated for paralysis at constant intervals. […]
Paralysis was evaluated on the basis of the behavior of the nematode after the nose of the nematode had been lightly tapped with a platinum wire.

A short description of series [3]: Stability of betalain pigment aqueous solutions at 37° C. Type of series: physicochemical. The following applies: for red color after treatment: 4 days at 37° C. As to the method:
An aqueous solution of each of celosianin II, amaranthin, and betanin was evaluated for its stability at 37° C.
For each of betanin, amaranthin, and celosianin II, a 1 mM aqueous solution was prepared, and left to stand still in an incubator at 37° C. Absorbances at 536 nm on days 0, 1, 2, 3, and 4 were measured, and for the resultant values, relative amounts with respect to the absorbance on day 0 were calculated.

For series [4], the target named is T2, human amyloid-β 1-40, Aβ40 (Homo sapiens, UniProt P05067).
T2 construct: A lyophilized amyloid peptide (human amyloid-β 1-40, Aβ40) was purchased from Peptide Institute, Inc; purchased Peptide Institute, Inc
The experiment in a line: Observation of amyloid peptide aggregation using transmission electron microscope. Type of series: biochemical. Conditions: 25 μM Aβ40 + 50 μM sample, 5 days; for effect on polymerization and amorphous aggregation of amyloid fibrils (conclusion from TEM): 37° C.; for aggregation of the amyloid peptide observed by TEM: PBS pH 7.4, 37° C., dark. On the procedure:
A lyophilized amyloid peptide (human amyloid-β 1-40, Aβ40) was purchased from Peptide Institute, Inc., dissolved as a stock solution at a concentration of 1 mM using dimethyl sulfoxide, and stored at-20° C. until use.
As a betaxanthin, the betaxanthin extracted from the betaxanthin-producing BY2 cells (FIG. 10) was used.
With regard to reaction conditions, Aβ40 and a sample (betanin, amaranthin, celosianin II, ferulic acid, or the betaxanthin) were prepared with PBS (pH 7.4) so as to have a final concentration of 25 μM and a final concentration of 50 μM, respectively. As a control, distilled water was used in place of the sample. The prepared sample was left to stand still in a dark place at 37° C. for 5 days.
The sample after the reaction was stained on a grid mesh for a transmission electron microscope by adding about 2 μL of a 2% uranyl acetate solution thereto. After the solution had dried, the aggregation of the amyloid peptide was observed using a transmission electron microscope (Hitachi 7650 TEM).

The target of series [5] is T3, recombinant HIV-1 protease (Human immunodeficiency virus type 1 group M subtype B, UniProt P04585).
T3 construct: A recombinant HIV-1 protease (ab84117) from Abcam was used as an HIV-1 protease; purchased Abcam ab84117
The experiment in a line: HIV-1 protease inhibitory activity (residual substrate peptide by HPLC). Type of series: biochemical. On the procedure:
A recombinant HIV-1 protease (ab84117) from Abcam was used as an HIV-1 protease, and an HIV-1 protease substrate (Lys-Ala-Arg-Val-Nle-p-nitro-Phe-Glu-Ala-Nle amide) from Sigma-Aldrich was used as a substrate peptide for the HIV-1 protease. HIV-1 protease activity evaluation was performed with reference to a previously reported method (Boso, G., Orvell, C. and Somia, N.V. (2015) The nature of the N-terminal amino acid residue of HIV-1 RNase H is critical for the stability of reverse transcriptase in viral particles. J. Virol. 89, 1286-1297.). Amaranthin, betanin, or celosianin II was added to 16 pmol of the HIV-1 protease and 4 nmol of the HIV-1 protease substrate, a buffer (25 mM NaCl, 25 mM Na2HPO4, 1 mM dithiothreitol, pH 4.7) was added so that the amount of a reaction liquid was 30 μl, and a reaction was performed at 25° C. for 2 hours. With regard to the addition amount of amaranthin, betanin, or celosianin II, amaranthin, betanin, and celosianin II were each added at the ratio of a 100-fold amount with respect to the amount of the HIV-1 protease. For celosianin II, the ratios of 25-and 50-fold amounts were further evaluated. An HIV-1 inhibitor saquinavir was used as a positive control.
After the reaction, the reaction liquid was measured for the amount of the residual substrate peptide through use of HPLC, and a residual ratio with respect to the substrate before the reaction was calculated. For the HPLC, LC-20AD from Shimadzu was utilized, and a Shim-pack GWS C18 column (5 μm; 200 mm×4.6 mm i.d.; Shimadzu GLC) was used as an analytical column. For an analytical solvent system, 0.05% TFA in water was used as solvent A and 0.05% TFA in acetonitrile was used as solvent B. An HPLC program was set to a linear gradient from 0% of solvent B at 0 minutes to 50% of solvent B at 50 minutes, and the HPLC was performed at a flow rate of 0.5 mL/min and 25° C. Analysis was performed with an analytical wavelength being set to 260 nm allowing the HIV-1 protease substrate peptide to be detected.

T1 sequence (P05067 672-711 limits assumed): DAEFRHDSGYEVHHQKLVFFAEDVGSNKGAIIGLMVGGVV
T2 sequence (P05067 672-711 limits assumed): as above

As to `O=C(O)C1=C/C(=C/C=[N+]2/c3cc(O)c(OC4OC(CO)[C@@H](O)C(O)C4O)cc3CC2C(=O)[O-])CC(C(=O)O)N1` (stereo in doubt) [betanin], the “amyloid-β polymerization inhibitory activity” value in series [1] is recorded as “comparable to or higher than that of the existing inhibitor (tannic acid)”. Moreover, in series [2], the paralysis ratio result was “significant amelioration (reduction) in paralysis ratio”. For the same compound, in series [3] (1 mM aqueous solution), the “red color after treatment” value is on record as “disappeared”. In addition, in series [4], the “effect on polymerization and amorphous aggregation of amyloid fibrils (conclusion from TEM)” value (shortened to “effect … (conclusion from TEM)”) was “inhibiting both of the polymerization and amorphous aggregation of amyloid fibrils”; the “aggregation of the amyloid peptide observed by TEM” value (“aggregation … by TEM” below) is reported as “only short amyloid fibrils were observed”.

As for `O=C(O)C1=C/C(=C/C=[N+]2c3cc(O)c(O[C@@H]4O[C@H](CO)[C@@H](O)[C@H](O)[C@H]4O[C@@H]4O[C@H](C(=O)O)[C@@H](O)[C@H](O)[C@H]4O)cc3C[C@H]2C(=O)[O-])C[C@@H](C(=O)O)N1` [amaranthin], in series [1], the “amyloid-β polymerization inhibitory activity” value was “possessed inhibitory activity, though its effect was low as compared to celosianin II and betanin”. Further, the “red color after treatment” value in series [3] (1 mM aqueous solution) is given as “disappeared”. Further, in series [4], the “effect … (conclusion from TEM)” value is “inhibiting both of the polymerization and amorphous aggregation of amyloid fibrils”; the “aggregation … by TEM” value is “only short amyloid fibrils were observed”.

With `COc1cc(/C=C/C(=O)O[C@H]2[C@H](O[C@H]3[C@H](Oc4cc5c(cc4O)[N+](=C/C=C4/C=C(C(=O)O)N[C@H](C(=O)O)C4)[C@H](C(=O)[O-])C5)O[C@H](CO)[C@@H](O)[C@@H]3O)O[C@H](C(=O)O)[C@@H](O)[C@@H]2O)ccc1O` [celosianin II], in series [1], the “amyloid-β polymerization inhibitory activity” value is reported as “comparable to or higher than that of the existing inhibitor (tannic acid)”. Also, the “residual amounts of the betalain pigments (absorbance at 536 nm relative to day 0)” value in series [3] (1 mM aqueous solution, 37° C., days 0 to 4) is “more abundant than amaranthin and betanin”. Moreover, the “red color after treatment” value in series [3] (1 mM aqueous solution) is given as “still exhibited a red color”. Moreover, in series [3] (37° C., compared to amaranthin and betanin), the “stability of aqueous solution” value is given as “stable”. The “dependence of HIV-1 protease inhibitory activity on amount” value in series [5] (25-, 50- and 100-fold amounts with respect to HIV-1 protease) is given as “amount-dependent”. The “HIV-1 protease activity inhibitory effect relative to amaranthin” value in series [5] (25-fold celosianin II vs 100-fold amaranthin) is 4 times. In addition, the “HIV-1 protease inhibitory activity” value in series [5] (celosianin II added in 25-fold amount with respect to HIV-1 protease, 25° C., 2 hours, pH 4.7) is given as “comparable to that in the case where a 100-fold amount of amaranthin was added”. Besides, in series [4], the “effect … (conclusion from TEM)” value was “inhibiting both of the polymerization and amorphous aggregation of amyloid fibrils”; the “aggregation … by TEM” value is listed as “only short amyloid fibrils were observed”.

For `COc1cc(/C=C/C(=O)O)ccc1O` [ferulic acid], the “amyloid-β polymerization inhibitory activity” value in series [1] is “weaker than those of celosianin II, the betanin pigment, and amaranthin”. In addition, in series [4], the “effect … (conclusion from TEM)” value is “inhibiting both of the polymerization and amorphous aggregation of amyloid fibrils”; the “aggregation … by TEM” value is reported as “only short amyloid fibrils were observed”.
